Literature values as cited in patent US9534000B2, “Cytotoxic benzodiazepine derivatives and methods of preparation” (ImmunoGen, Inc., priority 2011, dated 2017).

Details: Phase I clinical evaluation

C=C1C[C@H]2C=Nc3cc(OCCCOc4cc5c(cc4OC)C(=O)N4CC(=C)C[C@H]4C=N5)c(OC)cc3C(=O)N2C1 [SJG-136]
DNA damage in circulating lymphocytes: noted at all doses
